# Measured values published in article PMC11822212, “High-throughput screening identifies Aurora kinase B as a critical therapeutic target for Merkel cell carcinoma” (Nature Communications, 2025).
# Where two headings read alike, the source gives them in different places.
# Experiments:
# [1] = system: MCC13 cells (VN-MCC); experiment: qHTS cell viability (CellTiter-Glo, 72 h; primary and follow-up small molecule screen); assay type: cell-based, human
# [2] = system: MCC26 cells (VN-MCC); experiment: as above; assay type: cell-based, human
# [3] = system: UISO cells (VN-MCC); experiment: as above; assay type: cell-based, human
# [4] = system: WAGA cells (VP-MCC); experiment: as above; assay type: cell-based, human
# [5] = system: MKL-1 cells (VP-MCC); experiment: as above; assay type: cell-based, human
# [6] = system: MKL-2 cells (VP-MCC); experiment: as above; assay type: cell-based, human
# [7] = system: HACAT cells; experiment: qHTS cell viability (CellTiter-Glo, 72 h; primary screen), control cell line; assay type: cell-based, human
# [8] = system: HEK293T cells; experiment: as above; assay type: cell-based, human
# [9] = system: NIH-3T3 cells; experiment: as above; assay type: cell-based, mouse
# [10] = system: CRL-7250 cells; experiment: as above; assay type: cell-based
# [11] = system: MCC cell lines (WAGA, MKL-1, MKL-2, MCC13, MCC26, UISO); experiment: qHTS cell viability, all six MCC cell lines as a group (mean AUC, MCC.avg); assay type: cell-based, human
# [12] = system: VP-MCC cell lines (WAGA, MKL-1, MKL-2); experiment: qHTS cell viability, VP-MCC cell lines as a group (mean AUC, VP.MCC.avg); assay type: cell-based, human
# [13] = system: VN-MCC cell lines (MCC13, MCC26, UISO); experiment: qHTS cell viability, VN-MCC cell lines as a group (mean AUC, VN.MCC.avg); assay type: cell-based, human
# [14] = system: control cell lines (HACAT, HEK293T, CRL-7250, NIH-3T3); experiment: qHTS cell viability, control cell lines as a group (mean AUC, Control.avg); assay type: cell-based
# [15] = system: six MCC cell lines and four control cell lines; experiment: qHTS cell viability, all 10 cell lines screened; assay type: cell-based
# [16] = NPC library, qHTS dose-response AUC, MCC13
# [17] = NPC library, qHTS dose-response AUC, MCC26
# [18] = NPC library, qHTS dose-response AUC, UISO
# [19] = NPC library, qHTS dose-response AUC, WAGA
# [20] = NPC library, qHTS dose-response AUC, MKL1
# [21] = NPC library, qHTS dose-response AUC, MKL2
# [22] = NPC library, qHTS dose-response AUC, HACAT control
# [23] = NPC library, qHTS dose-response AUC, HEK293T control
# [24] = NPC library, qHTS dose-response AUC, NIH3T3 control
# [25] = NPC library, qHTS dose-response AUC, CRL7250 control
# [26] = NPC library, mean AUC of six MCC cell lines
# [27] = NPC library, mean AUC of VP-MCC cell lines
# [28] = NPC library, therapeutic window: Control avg AUC minus VP-MCC avg AUC
# [29] = NPC library, mean AUC of VN-MCC cell lines
# [30] = NPC library, therapeutic window: Control avg AUC minus VN-MCC avg AUC
# [31] = NPC library, mean AUC of control cell lines
# [32] = NPC library, therapeutic window: Control avg AUC minus MCC avg AUC
SMILES,"MCC13_AUC [1, 16]","MCC26_AUC [2, 17]","UISO_AUC [3, 18]","WAGA_AUC [4, 19]","MKL1_AUC [5, 20]","MKL2_AUC [6, 21]","HACAT_AUC [7, 22]","HEK293T_AUC [8, 23]","NIH3T3_AUC [9, 24]","CRL7250_AUC [10, 25]","MCC_Avg_AUC [11, 26]","VP-MCC_Avg_AUC [12, 27]","Control-VP-MCC [12, 28]","VN-MCC_Avg_AUC [13, 29]","Control-VN-MCC [13, 30]","Control_Avg_AUC [14, 31]","Control-MCC [15, 32]",also measured
O=C(CCN1CCC(c2ccccc2)C1)c1ccc2c(c1)OCCO2 (centres unmarked) [Proroxan],464.203,531.522,463.935,401.693,401.495,379.094,483.91,432.979,459.69,469.26,440.324,394.094,67.3656,486.553,-25.0934,461.46,21.1361,"Area under the dose-response curve (AUC) MCC13 Replicate 1 ([1]; follow-up screen, MCC13, replicate 1): 493.7; Area under the dose-response curve (AUC) MCC13 Replicate 2 ([1]; follow-up screen, MCC13, replicate 2): 500.7; Area under the dose-response curve (AUC) MCC13 Replicate 3 ([1]; follow-up screen, MCC13, replicate 3): 474.6; Area under the dose-response curve (AUC) MCC26 Replicate 1 ([2]; follow-up screen, MCC26, replicate 1): 461.4; Area under the dose-response curve (AUC) MCC26 Replicate 2 ([2]; follow-up screen, MCC26, replicate 2): 445.0; Area under the dose-response curve (AUC) MCC26 Replicate 3 ([2]; follow-up screen, MCC26, replicate 3): 478.9; Area under the dose-response curve (AUC) UISO Replicate 1 ([3]; follow-up screen, UISO, replicate 1): 440.8; Area under the dose-response curve (AUC) UISO Replicate 2 ([3]; follow-up screen, UISO, replicate 2): 468.5; Area under the dose-response curve (AUC) UISO Replicate 3 ([3]; follow-up screen, UISO, replicate 3): 484.4; Area under the dose-response curve (AUC) WAGA Replicate 1 ([4]; follow-up screen, WAGA, replicate 1): 471.3; Area under the dose-response curve (AUC) WAGA Replicate 2 ([4]; follow-up screen, WAGA, replicate 2): 460.1; Area under the dose-response curve (AUC) WAGA Replicate 3 ([4]; follow-up screen, WAGA, replicate 3): 475.6; Area under the dose-response curve (AUC) MKL-1 Replicate 1 ([5]; follow-up screen, MKL-1, replicate 1): 420.7; Area under the dose-response curve (AUC) MKL-1 Replicate 2 ([5]; follow-up screen, MKL-1, replicate 2): 440.6; Area under the dose-response curve (AUC) MKL-1 Replicate 3 ([5]; follow-up screen, MKL-1, replicate 3): 412.1; Area under the dose-response curve (AUC) MKL-2 Replicate 1 ([6]; follow-up screen, MKL-2, replicate 1): 423.0; Area under the dose-response curve (AUC) MKL-2 Replicate 2 ([6]; follow-up screen, MKL-2, replicate 2): 412.3; Area under the dose-response curve (AUC) MKL-2 Replicate 3 ([6]; follow-up screen, MKL-2, replicate 3): 429.1"
O=C(CCCCCCCCC#CI)Oc1ccccc1 [Phenyl 11-iodo-10-undecynoate],470.776,443.917,437.546,406.191,407.973,402.29,489.285,475.205,495.803,487.776,428.115,405.485,81.5325,450.746,36.2708,487.017,58.9016,–
CNC(C)Cc1ccc2c(c1)OCO2.Cl (centres unmarked),–,–,–,–,–,–,–,–,–,–,–,–,–,–,–,–,–,MCC13_AUC [1]: 451.345; MCC26_AUC [2]: 414.843; UISO_AUC [3]: 441.906; WAGA_AUC [4]: 422.784; MKL1_AUC [5]: 436.372; MKL2_AUC [6]: 446.935; HACAT_AUC [7]: 490.316; HEK293T_AUC [8]: 483.458; NIH3T3_AUC [9]: 493.81; CRL7250_AUC [10]: 491.585; MCC_Avg_AUC [11]: 435.698; Control-VP-MCC [12]: 54.4283; VP-MCC_Avg_AUC [12]: 435.364; Control-VN-MCC [13]: 53.7607; VN-MCC_Avg_AUC [13]: 436.031; Control_Avg_AUC [14]: 489.792; Control-MCC [15]: 54.0945
CN(CC1(C)CCCO1)S(=O)(=O)c1ccc(Cl)c(S(N)(=O)=O)c1 (centres unmarked) [Mefruside],487.176,494.694,490.08,408.321,435.185,389.363,466.668,446.841,485.692,471.553,450.803,410.957,56.732,490.65,-22.9615,467.688,16.8852,–
